44 molecules from patent US5428059A, “Benzopyran derivatives and an anti-allergic agent possessing the same as the active ingredient” (Dainippon Ink & Chemicals, Inc., priority 1991, dated 1995) can be followed below.

This experiment concerns Hartley-type male guinea pigs. The experiment in a line: Guinea Pig Homogeneous Skin Passive Anaphylaxis Assay (PCA reaction). The experiment is classed as in vivo, guinea pig (Hartley-type). As to conditions: Cavia porcellus, 10 mg/kg oral, 48 h after sensitization, read-out: Allergic reaction inhibitory index (%). An outline of the steps: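 Inhibition % is derived from Evans Blue leakage area (mm^2, product of spot diameters) read 30 min after i.v. OVA/dye challenge. Beforehand, male Hartley guinea pigs (250~300 g) were passively sensitized intradermally with 120-fold-diluted anti-OVA serum and, after 48 h, received test compound 10 mg/kg p.o.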

Regarding `CCCCCCCCCCOc1c(OC(C)C)c2cccc(OC/C=C(\C)CCC=C(C)C)c2oc1=O` [Compound 164, 3-(decyloxy)-4-(isopropoxy)-8-(geranyloxy)-2H-1-benzopyran-2-one], the inhibition in vivo at 10 mg/kg came to 33%.
In the case of `CC(C)=CCC/C(C)=C/COc1cccc2c(OC(C)C)c(OC(=O)c3ccccc3)c(=O)oc12` [Compound 165, 3-(benzoyloxy)-4-(isopropoxy)-8-(geranyloxy)-2H-1-benzopyran-2-one], the inhibition in vivo at 10 mg/kg is 30%.
The same measure for `COc1c(OC(C)=O)c2cccc(OC/C=C(\C)CCC=C(C)C)c2oc1=O` [Compound 166, 3-(methoxy)-4-(acetoxy)-8-(geranyloxy)-2H-1-benzopyran-2-one]: 30%.
The same measure for `CC(C)=CCC/C(C)=C/COc1c(O)c2cccc(OC/C=C(\C)CCC=C(C)C)c2oc1=O` [Compound 167, 3,8-(digeranyloxy)-4-hydroxy-2H-1-benzopyran-2-one]: 30%; for `CC(C)=CCC/C(C)=C/COc1c(O)c(=O)oc2c(OC/C=C(\C)CCC=C(C)C)cccc12` [Compound 168, 3-hydroxy-4,8-(digeranyloxy)-2H-1-benzopyran-2-one]: 34%; for `CC(=O)Oc1c(OC/C=C(\C)CCC=C(C)C)c(=O)oc2c(OC/C=C(\C)CCC=C(C)C)cccc12` [Compound 169, 3,8-(digeranyloxy)-4-(acetoxy)-2H-1-benzopyran-2-one]: 30%.
The value for `CC(C)=CCC/C(C)=C/COc1c(OC(=O)c2ccccc2)c(=O)oc2c(OC/C=C(\C)CCC=C(C)C)cccc12` [Compound 170, 3-(benzoyloxy)-4,8-(digeranyloxy)-2H-1-benzopyran-2-one] was 31%; that for `COc1c(OC/C=C(\C)CCC=C(C)C)c(=O)oc2c(OC/C=C(\C)CCC=C(C)C)cccc12` [Compound 171, 3,8-(digeranyloxy)-4-(methoxy)-2H-1-benzopyran-2-one] was 33%.
For the molecule `CC(C)=CCC/C(C)=C/COc1c(OC(C)C)c(=O)oc2c(OC/C=C(\C)CCC=C(C)C)cccc12` [Compound 172, 3-(isopropoxy)-4,8-(digeranyloxy)-2H-1-benzopyran-2-one], the inhibition in vivo at 10 mg/kg came to 30%.
Turning to `O=C(Oc1c(O)c2c(O)cccc2oc1=O)c1ccccc1` [Compound 176, 3-(benzoyloxy)-4,5-dihydroxy-2H-1-benzopyran-2-one], the inhibition in vivo at 10 mg/kg was found to be 34%.
For the molecule `O=c1oc2cccc(O)c2c(O)c1O` [Compound 177, 3,4,5-trihydroxy-2H-1-benzopyran-2-one], the inhibition in vivo at 10 mg/kg stood at 37%.
The same measure for `CC(=O)Oc1c(O)c(=O)oc2cccc(O)c12` [Compound 178, 3,5-(dihydroxy)-4-(acetoxy)-2H-1-benzopyran-2-one]: 30%.
The same measure for `CC(=O)Oc1c(OC(C)=O)c2c(OC(C)=O)cccc2oc1=O` [Compound 179, 3,4,5-(triacetoxy)-2H-1-benzopyran-2-one]: 32%; for `CC(=O)Oc1c(OC(=O)c2ccccc2)c(=O)oc2cccc(O)c12` [Compound 180, 3-(benzoyloxy)-4-(acetoxy)-5-hydroxy-2H-1-benzopyran-2-one]: 30%; for `CC(=O)Oc1cccc2oc(=O)c(OC(=O)c3ccccc3)c(OC(C)=O)c12` [Compound 181, 3-(benzoyloxy)-4,5-(diacetoxy)-2H-1-benzopyran-2-one]: 33%.
The value for `CC(C)Oc1c(O)c2c(O)cccc2oc1=O` [Compound 182, 3-(isopropoxy)-4,5-(dihydroxy)-2H-1-benzopyran-2-one] was 31%; that for `CCCCCCCCCCOc1c(O)c(=O)oc2cccc(O)c12` [Compound 183, 3,5-(dihydroxy)-4-(decyloxy)-2H-1-benzopyran-2-one] was 30%.
Regarding `CCCCCCCCCCOc1c(OC)c(=O)oc2cccc(O)c12` [Compound 184, 3-(methoxy)-4-(decyloxy)-5-hydroxy-2H-1-benzopyran-2-one], the inhibition in vivo at 10 mg/kg was 33%.
The value for `CC(=O)Oc1c(OC(C)C)c2c(O)cccc2oc1=O` [Compound 185, 3-(acetoxy)-4-(isopropoxy)-5-hydroxy-2H-1-benzopyran-2-one] was 30%; that for `CCCCCCCCCCOc1c(OC(=O)c2ccccc2)c2c(O)cccc2oc1=O` [Compound 186, 3-(decyloxy)-4-(benzoyloxy)-5-hydroxy-2H-1-benzopyran-2-one] was 32%; that for `CC(C)=CCC/C(C)=C/COc1c(O)c2c(O)cccc2oc1=O` [Compound 187, 3-(geranyloxy)-4,5-(dihydroxy)-2H-1-benzopyran-2-one] was 30%.
Consider `CC(C)=CCC/C(C)=C/COc1c(O)c(=O)oc2cccc(O)c12` [Compound 188, 3,5-(dihydroxy)-4-(geranyloxy)-2H-1-benzopyran-2-one], for which the inhibition in vivo at 10 mg/kg was found to be 32%.
The same measure for `CC(=O)Oc1c(OC/C=C(\C)CCC=C(C)C)c(=O)oc2cccc(O)c12` [Compound 189, 3-(geranyloxy)-4-(acetoxy)-5-hydroxy-2H-1-benzopyran-2-one]: 30%.
The value for `CC(C)=CCC/C(C)=C/COc1c(OC(=O)c2ccccc2)c(=O)oc2cccc(O)c12` [Compound 190, 3-(benzoyloxy)-4-(geranyloxy)-5-hydroxy-2H-1-benzopyran-2-one] was 31%; that for `COc1c(OC/C=C(\C)CCC=C(C)C)c(=O)oc2cccc(O)c12` [Compound 191, 3-(geranyloxy)-4-(methoxy)-5-hydroxy-2H-1-benzopyran-2-one] was 30%.
The same measure for `CC(C)=CCC/C(C)=C/COc1c(OC(C)C)c(=O)oc2cccc(O)c12` [Compound 192, 3-(isopropoxy)-4-(geranyloxy)-5-hydroxy-2H-1-benzopyran-2-one]: 37%; for `CC(C)=CCC/C(C)=C/COc1c(OC/C=C(\C)CCC=C(C)C)c2c(O)cccc2oc1=O` [Compound 193, 3,4-(digeranyloxy)-5-hydroxy-2H-1-benzopyran-2-one]: 30%.
For the molecule `COc1cccc2oc(=O)c(OC(=O)c3ccccc3)c(O)c12` [Compound 194, 3-(benzoyloxy)-4-hydroxy-5-(methoxy)-2H-1-benzopyran-2-one], the inhibition in vivo at 10 mg/kg came out at 46%.
As to `COc1cccc2oc(=O)c(O)c(O)c12` [Compound 195, 3,4-(dihydroxy)-5-(methoxy)-2H-1-benzopyran-2-one], the inhibition in vivo at 10 mg/kg worked out at 55%.
Turning to `COc1cccc2oc(=O)c(O)c(OC(C)=O)c12` [Compound 196, 3-hydroxy-4-(acetoxy)-5-(methoxy)-2H-1-benzopyran-2-one], the inhibition in vivo at 10 mg/kg was found to be 33%.
With `COc1cccc2oc(=O)c(OC(C)=O)c(OC(=O)c3ccccc3)c12` [Compound 197, 3-(acetoxy)-4-(benzoyloxy)-5-(methoxy)-2H-1-benzopyran-2-one], the inhibition in vivo at 10 mg/kg worked out at 32%.
For the molecule `COc1cccc2oc(=O)c(OC(C)C)c(O)c12` [Compound 198, 3-(isopropoxy)-4-hydroxy-5-(methoxy)-2H-1-benzopyran-2-one], the inhibition in vivo at 10 mg/kg was 40%.
The same measure for `CCCCCCCCCCOc1c(O)c(=O)oc2cccc(OC)c12` [Compound 199, 3-hydroxy-4-(decyloxy)-5-(methoxy)-2H-1-benzopyran-2-one]: 32%; for `COc1c(OC(C)C)c2c(OC)cccc2oc1=O` [Compound 200, 3,5-(dimethoxy)-4-(isopropoxy)-2H-1-benzopyran-2-one]: 30%; for `COc1cccc2oc(=O)c(OC(C)=O)c(OC)c12` [Compound 201, 3-(acetoxy)-4,5-(dimethoxy)-2H-1-benzopyran-2-one]: 31%.
In the case of `CCCCCCCCCCOc1c(OC(=O)c2ccccc2)c2c(OC)cccc2oc1=O` [Compound 202, 3-(decyloxy)-4-(benzoyloxy)-5-(methoxy)-2H-1-benzopyran-2-one], the inhibition in vivo at 10 mg/kg is 30%.
The same measure for `COc1cccc2oc(=O)c(OC/C=C(\C)CCC=C(C)C)c(O)c12` [Compound 203, 3-(geranyloxy)-4-hydroxy-5-(methoxy)-2H-1-benzopyran-2-one]: 41%.
The same measure for `COc1cccc2oc(=O)c(O)c(OC/C=C(\C)CCC=C(C)C)c12` [Compound 204, 3-hydroxy-4-(geranyloxy)-5-(methoxy)-2H-1-benzopyran-2-one]: 30%; for `COc1cccc2oc(=O)c(OC/C=C(\C)CCC=C(C)C)c(OC(=O)c3ccccc3)c12` [Compound 205, 3-(geranyloxy)-4-(benzoyloxy)-5-(methoxy)-2H-1-benzopyran-2-one]: 31%; for `COc1cccc2oc(=O)c(OC(C)=O)c(OC/C=C(\C)CCC=C(C)C)c12` [Compound 206, 3-(acetoxy)-4-(geranyloxy)-5-(methoxy)-2H-1-benzopyran-2-one]: 32%.
Turning to `COc1cccc2oc(=O)c(OC/C=C(\C)CCC=C(C)C)c(OC(C)C)c12` [Compound 207, 3-(geranyloxy)-4-(isopropoxy)-5-(methoxy)-2H-1-benzopyran-2-one], the inhibition in vivo at 10 mg/kg was 33%.
For `COc1c(OC/C=C(\C)CCC=C(C)C)c2c(OC)cccc2oc1=O` [Compound 208, 3,5-(dimethoxy)-4-(geranyloxy)-2H-1-benzopyran-2-one], the inhibition in vivo at 10 mg/kg worked out at 32%.
For the molecule `COc1cccc2oc(=O)c(OC/C=C(\C)CCC=C(C)C)c(OC/C=C(\C)CCC=C(C)C)c12` [Compound 209, 3,4-(digeranyloxy)-5-(methoxy)-2H-1-benzopyran-2-one], the inhibition in vivo at 10 mg/kg came out at 33%.
On to `CC(C)Oc1cccc2oc(=O)c(OC(=O)c3ccccc3)c(O)c12` [Compound 210, 3-(benzoyloxy)-4-hydroxy-5-(isopropoxy)-2H-1-benzopyran-2-one], for which the inhibition in vivo at 10 mg/kg was determined as 40%.
